Data as given in patent publication US20220000887A1, “REPURPOSED ANTIBIOTICS FOR NON-NUCLEAR GENOTOXIC CHEMOTHERAPY AND PHARMACEUTICAL COMPOSITION FOR ANTI-CANCER CONTAINING THE SAME” (Korea University Research and Business Foundation, priority 2019, published 2022).
Where “and” joins values, the source holds several entries; their conditions need not be identical. Identical values can stand only once. Entries after “also recorded” stand apart in the source; their conditions may differ. Like-named read-outs stand apart in the source and are kept apart here.

Legend:
MDA-MB-231 cells [1] = test: Mitochondrial membrane potential measurement (JC-1 assay); format: cell-based, human; settings: 10 μM, 0, 6, 12, 24 h, FIG. 7
Procedure: Mitochondrial membrane potential differences were measured. To this end, the MDA-MB-231 cells were treated with 10 μM Ester MT-CFX for different periods of time (0, 6, 12, and 24 h) and cultured for indicated periods of time. Cells were harvested, washed once with ice-cold PBS, and cultured with […] 5,5′,6,6′-tetrachloro-1,1′,3,3′-tetraethyl-benzimidazolyl carbocyanine chloride (JC-1) at 37° C. for 20 min. The JC-1 stained cells were centrifuged at 1,300 g for 3 min and washed twice with ice-cold PBS. Mitochondrial membrane potentials of JC-1 monomer (green channel) and aggregate (red channel) were measured in different wavelength bands.

[2] = tested on: PC3 (prostate cancer cells); test: Cell viability analysis (LDH assay), PC3; format: cell-based, human; settings: FIG. 3
Procedure: (§1) Particularly, the inventive anticancer drugs had IC50 values of 23.77 μM and 27.05 μM against A549 and SW620, respectively.

MDA-MB-231 cells [3] = test: FACS measurement of Annexin-V positive apoptotic cells; format: cell-based, human; settings: 10 μM, 0, 6, 12, 24 h, Annexin V assay, FIG. 7
Procedure: Annexin-V positive apoptotic cells were analyzed by flow cytometry. To this end, the MDA-MB-231 cells were treated with 10 μM Ester MT-CFX for different periods of time (0, 6, 12, and 24 h) and cultured for indicated periods of time. Cells were harvested, washed twice with ice-cold PBS, placed in BD FACS tubes (10^6/mL), and cultured with 10 μg/mL annexin V in PBS containing 10% FBS at room temperature for 30 min. Subsequently, cells were washed with ice-cold PBS and annexin V fluorescence was measured in the FL-1 channel using a FACSCalibur flow cytometer (BD, USA).

[4] = tested on: DU145 (prostate cancer cells); test: Cell viability analysis (LDH assay), DU145; format: cell-based, human; settings: FIG. 3
Procedure: as §1

A549 (lung cancer cells) = test: Cell viability analysis (LDH assay), A549; format: cell-based, human; settings: FIG. 3
Procedure: as §1

[5] = tested on: nuclear DNA and mitochondrial DNA; test: Damage to nuclear DNA and mitochondrial DNA (FIG. 8)
Source text: (§2) RNA was extracted from each sample using TRIzol solution. cDNA synthesized from the isolated RNA or intracellular genomic DNA extracted using a genomic DNA isolation kit was used for real-time polymerase chain reaction (PCR).
(§3) The real-time PCR data were normalized by the expression of glyceraldehyde-3-phosphate dehydrogenase (GAPDH). Relative expression levels were expressed as fold changes over the control. The results (mean±SE) were obtained in triplicate and a p value <0.05 was taken to be statistically significant.

MDA-MB-231 xenograft = test: In vivo mouse xenograft model; settings: intravenous three times a week, 12 weeks, BALB/c-nu-nu mice
Procedure: Five-week-old immunodeficient male BALB/c-nu-nu mice (Orient bio, Korea) weighing between 18-20 g were used. The animals were bred and housed in a facility maintaining a humidity of 30-40% and a temperature of 22±1° C. on a 12-h light/dark cycle. All animal experiments were approved by the Ethics Committee for Animal Studies at Korea University. Animals were treated in accordance with the protocol approved by the Ethics Committee.
MDA-MB-231 cells (5×10^6 cells) were injected subcutaneously into 6-week-old immunodeficient BALB/c-nu-nu mice weighing between 18-20 g to establish tumor-bearing mouse models. […] The lengths of the long and short axes of tumors were measured weekly. 12 weeks after the first injection of each compound, the mice were sacrificed and tumor samples were collected for further analysis. […] Each asterisk (*) indicates a significant difference to the corresponding control.

[6] = tested on: mitochondrial genomic DNA; test: Taq1 assay for damage to mitochondrial genomic DNA (FIG. 10); format: cell-based
[7] = tested on: mitochondrial DNA synthesis; test: Mitochondrial DNA synthesis (FIG. 5); format: cell-based
Source text: as §2, §3

[8] = tested on: nuclear and mitochondrial DNA; test: Real-time PCR for nuclear and mitochondrial DNA damage lesions (FIG. 11); format: cell-based
Source text: as §2, §3

MDA-MB-231 cells [9] = test: Reactive oxidative species (ROS) measurement (Amplex Red, CM-H2DCFDA); format: cell-based, human; settings: 10 μM, 48 h, FIG. 4
Procedure: The activity of hydrogen peroxide (H2O2) produced in cells was evaluated by detection with Amplex® Red reagent (10-acetyl-3,7-dihydroxyphenoxazine; Thermo Fisher scientific). Here, Amplex® Red reagent reacts with H2O2 in a stoichiometric ratio of 1:1 in the presence of peroxidase in cells to produce resorufin as a red fluorescent product. The fluorescence of resorufin can be analyzed at excitation and emission wavelengths of 571 nm and 581 nm, respectively. The MDA-MB-231 cell line was seeded into a 96-well plate and treated with 10 μM Ester MT-CFX for 48 h. Thereafter, the amount of hydrogen peroxide was measured. A reaction mixture of 50 μM Amplex® Red reagent and 0.1 U/mL HRP was prepared in Krebs-Ringer phosphate buffer (145 mM NaCl, 5.7 mM sodium phosphate, 4.86 mM KCl, 0.54 mM CaCl2, 1.22 mM MgSO4, 5.5 mM glucose, pH 7.35). 100 μL of the reaction mixture was added to each plate well, followed by incubation at 37° C. for 10 min. The brightness of fluorescence was measured at 530-560 nm excitation and 590 nm emission wavelengths using a microplate reader. The MDA-MB-231 cell line was seeded into a confocal dish. […] The fluorescence of reactive oxygen species produced in cells was imaged by confocal laser scanning microscopy at 492-495 nm excitation and 517-527 nm emission wavelengths.

[10] = tested on: SW620 (colon cancer cells); test: Cell viability analysis (LDH assay), SW620; format: cell-based, human; settings: FIG. 3
Procedure: as §1

[11] = tested on: nuclear DNA and mitochondrial DNA
Source text: as §2, §3

[12] = tested on: MDA-MB-231 metastatic breast cancer cells; test: Cell viability analysis (LDH assay), MDA-MB-231; settings: for apoptotic effect on MDA-MB-231 cells: 48 h treatment

Compound: Cl.O=C(OCCCCCC[P+](c1ccccc1)(c1ccccc1)c1ccccc1)c1cn(C2CC2)c2cc(N3CCNCC3)c(F)cc2c1=O.[Cl-] [Ester Mt-CFX]
- mitochondrial membrane potential differences (MDA-MB-231 cells [1]): reduction of mitochondrial membrane potential differences
- apoptotic effects on PC3 [2]: apoptotic effects
- apoptosis over time (MDA-MB-231 cells [3]): occurrence of apoptosis over time
- apoptotic effects on DU145 [4]: apoptotic effects
- apoptotic effects on A549 (A549 (lung cancer cells)): apoptotic effects
- toxicity to mitochondrial genes [5]: selective toxicity to mitochondrial genes
- cancer volume compared to control (MDA-MB-231 xenograft): significant reduction in cancer volume
- mitochondria targeting (damage to mitochondrial genomic DNA) [6]: targeted mitochondria
- mitochondrial DNA synthesis [7]: inhibition of mitochondrial DNA synthesis
- mitochondrial mutations (DNA damage lesions) [8]: induced mitochondrial mutations
- production of reactive oxygen species (MDA-MB-231 cells [9]): reactive oxygen species are produced
- apoptotic effects on SW620 [10]: apoptotic effects
- toxicity to nuclear genes [11]: no toxicity to nuclear genes
- apoptotic effect on MDA-MB-231 cells ([12]; LDH assay): strong apoptotic effect; also recorded: apoptotic effects
- IC50 ([12]; MDA-MB-231, 48 h treatment, LDH assay): ~15 µM and 20 to 30 µM
- apoptotic activity against the cancer cells, fold higher than that of ciprofloxacin ([12]; MDA-MB-231, ratio of IC50 values): ~55,000 fold

Compound: O=C(O)c1cn(C2CC2)c2cc(N3CCNCC3)c(F)cc2c1=O [ciprofloxacin, reference compound]
- apoptotic effect on MDA-MB-231 cells ([12]; LDH assay): little or no apoptotic effect

Compound: COc1cccc2c1C(=O)c1c(O)c3c(c(O)c1C2=O)C[C@@](O)(C(=O)CO)C[C@@H]3O[C@H]1C[C@H](N)[C@H](O)[C@H](C)O1 [doxorubicin, reference compound]
- toxicity to nuclear genes [5]: strong toxicity to nuclear genes

Compound: O=C(NCCCCCC[P+](c1ccccc1)(c1ccccc1)c1ccccc1)c1cn(C2CC2)c2cc(N3CCNCC3)c(F)cc2c1=O.[Cl-] [Amide Mt-CFX]
- apoptotic effects on PC3 [2]: apoptotic effects
- apoptotic effects on DU145 [4]: apoptotic effects
- apoptotic effects on A549 (A549 (lung cancer cells)): apoptotic effects
- apoptotic effects on SW620 [10]: apoptotic effects
- apoptotic effect on MDA-MB-231 cells ([12]; LDH assay): enhanced apoptotic effect; also recorded: apoptotic effects
